Consider 2 molecules from US20140249295A1, “LIGHT-INDUCIBLE SYSTEM FOR REGULATING PROTEIN STABILITY” (The Board of Trustees Of The Leland Stanford Junior …, priority 2013, published 2014).

In assay [1] the test system is NIH3T3 cells. The experiment in a line: Flow cytometry / immunoblot of NIH3T3 cells stably expressing YFP-LOV2 domain fusions, dark vs blue light. Type of assay: cell-based. The conditions noted are these: 10 μM MG132, blue light 2 hours, FACS analysis. On the procedure:
Genes encoding the proteins tested as fusions to the BLID domain were cloned by standard techniques in the retroviral pBMN vector encoding an iHcRed-t or iBlasticidin. The ΦNX ecotropic packaging cell line was cultured in DMEM supplemented with 10% heat-inactivated fetal bovine serum, 2 mM glutamine, 100 U/mL penicillin and 100 μg/mL streptomycin. The NIH3T3 cell line was cultured in DMEM supplemented with 10% heat-inactivated donor bovine serum, 2 mM glutamine, 100 U/mL penicillin and 100 μg/mL streptomycin. The ΦNX cells were transfected using standard Lipofectamine 2000 protocols. Viral supernatants were harvested 48 h posttransfection and filtered through a 0.45 μm nylon syringe filter. NIH3T3 cells were incubated with the retroviral supernatants supplemented with 4 μg/mL polybrene for 4-6 h at 37° C. Cells were cultured in growth media for 24 to 36 h to allow for viral integration, then assayed as described.
Twenty-four hours prior to analysis, transduced NIH3T3 cells were plated at 1×10^5 cells per well of a 12-well plate and treated with vehicle or blue light for indicated time points prior to analysis. […] Samples were analyzed at the Stanford Shared FACS Facility with 10,000 events represented.
For immunoblotting, NIH3T3 cells were washed in PBS and lysed on ice in MIPP buffer containing protease inhibitors. Protein concentration was measured by Bradford assay. […]

Assay [2] has as its system 3T3 cells. As to conditions: cited from earlier work.

Where a SMILES comes first, the peptide text is derived from it. The star is where a group is joined. Cbz = O=C(OCc1ccccc1)*

Consider `CC(C)C[C@@H](C=O)NC(=O)[C@H](CC(C)C)NC(=O)[C@H](CC(C)C)NC(=O)OCc1ccccc1` [MG132] (Cbz-Leu-Leu-Leu-aldehyde), for which, in assay [1], the “effect on light-dependent decrease in fluorescence of YFP-LOV24” value is recorded as “prevents the light-dependent decrease in fluorescence”.
Take RRRG: in assay [2], the “fluorescence of YFP with C-terminal degron” value is listed as “no fluorescence is observed”.
